# Non-standard residues stand in square brackets, D forms with d. Residues, ends and D or L forms follow the SMILES beside them. *: point of attachment. Paclitaxel(2'-OCO(CH2)3S) = CC(=O)O[C@H]1C(=O)[C@@]2(C)[C@H]([C@H](OC(=O)c3ccccc3)[C@]3(O)C[C@H](OC(=O)[C@H](OC(=O)CCCS*)[C@@H](NC(=O)c4ccccc4)c4ccccc4)C(C)=C1C3(C)C)[C@]1(OC(C)=O)CO[C@@H]1C[C@@H]2O; X2 = CC(=O)O[C@H]1C(=O)[C@@]2(C)[C@H]([C@H](OC(=O)c3ccccc3)[C@]3(O)C[C@H](OC(=O)[C@H](OC(=O)OCCS*)[C@@H](NC(=O)c4ccccc4)c4ccccc4)C(C)=C1C3(C)C)[C@]1(OC(C)=O)CO[C@@H]1C[C@@H]2O; X1 = CC(=O)O[C@H]1C(=O)[C@]2(C)[C@@H](OC(=O)CCCS*)C[C@H]3OC[C@@]3(OC(C)=O)[C@H]2[C@H](OC(=O)c2ccccc2)[C@]2(O)C[C@H](OC(=O)[C@H](O)[C@@H](NC(=O)c3ccccc3)c3ccccc3)C(C)=C1C2(C)C; X3 = O=C(OCCCS*)Oc1ccc(-c2cn3c(=O)c(Cc4ccccc4)nc-3c(Cc3ccccc3)[nH]2)cc1
# How the values were obtained:
# [1] = Hydrolytic stability (HBS, pH 7.4, 37° C.); type: physicochemical
# Method: A conjugate in which a drug to be delivered and a transporter are linked by a specifically cleavable or specifically releasable linker will have a half-life. The term “half-life” in this context refers to the amount of time required for one half of the amount of conjugate to become dissociated to release the free drug. The “accelerated” (37° C.) hydrolytic half-lives of the conjugates ranged from 19 to 97 hours, extending well beyond the incubation times (≦20 minutes) used for cell assays. Stabilities of the conjugates as solids at room temperature extend for months. […] The half-life of a conjugate can be “tuned” or modified, according to the invention, as described below.
# The “accelerated” (37° C.) hydrolytic half-lives of the tetra- and octaarginine conjugates ranged from 19 to 97 hours, extending well beyond the incubation times (s 20 minutes) used for cell assays. Stability as a solid at room temperature extends for months. […] The activities of various conjugate-linker combinations were evaluated using a panel of human cancer cells, leading to the identification of ester-linked conjugates 2a and 3a as preferred candidates (Table 2).
# [2] = system: MCF-7; assay: cells; conditions: read-out: IC50 concentration; MCF-7; 20 min incubation, washed, 72 hr drug-free media
# Method: (§1) After 72 hours, the cytotoxicity of the relevant compound was determined by an MTT based assay.
# (§2) Cell Lines; SKOV-3 cells were obtained from ATCC; UCI-101 and UCI-107 cell lines were obtained from Drs. P. DiSaia and A. Manetta, University of California; MCF-7 and MCF-7-Pgp were obtained from Dr. D. Piwnica-Worms, Washington University; OVCA429, OVCA433 and the taxane resistant derivatives of these cells (OVCA429T, OVCA429TxT, OVCA433T and OVCA433TxT) were obtained from Dr. B. Sikic, Stanford University. All cells were grown in DMEM with 10% FBS.
# (§3) Cell Cytotoxicity Assay. The cytotoxicity of relevant compounds was determined by IC50 assay. Cells were seeded overnight into 96-well plates, and then incubated with a serial dilution of the indicated compound for 20 min, before washing twice with fresh media, and incubation at 37° C. for 72 hr in drug-free media. The IC50 values were determined as the concentration of compound required to inhibit the viability of the cell layer by 50% relative to untreated, and cell-free control wells (100 and 0% viability respectively) determined from semi-logarithmic dose response curves. […] Bioluminescence was determined using an IVIS 50 system (Caliper Life Sciences, Alameda, Calif.). Each compound and dilution was tested in triplicate per experiment, with each experiment reproduced three times.
# [3] = system: OVCA 429; assay: cells; conditions: read-out: IC50 concentration; OVCA 429; 20 min incubation, washed, 72 hr drug-free media
# Method: as §1, §2, §3
# [4] = system: OVCA 433; assay: cells; conditions: read-out: IC50 concentration; OVCA 433; 20 min incubation, washed, 72 hr drug-free media
# Method: as §1, §2, §3
# [5] = system: SKOV-3; assay: cells; conditions: read-out: IC50 concentration; SKOV-3; 20 min incubation, washed, 72 hr drug-free media
# Method: as §1, §2, §3
# [6] = system: UCI-101 luc; assay: cells; conditions: read-out: IC50 concentration; UCI-101 luc; 20 min incubation, washed, 72 hr drug-free media; MTT assay or luciferase activity
# Method: as §1, §2, §3
# [7] = system: UCI-107 luc; assay: cells; conditions: read-out: IC50 concentration; UCI-107 luc; 20 min incubation, washed, 72 hr drug-free media; MTT assay or luciferase activity
# Method: as §1, §2, §3
# [8] = system: OVCA 429TxT; assay: cells; conditions: read-out: IC50 concentration; OVCA 429TxT (taxotere selected); 20 min incubation, washed, 72 hr drug-free media
# Method: as §1
# (§4) Within the panel of human cancer cells, there were three sets of related sensitive and resistant cell lines, the latter based wholly or in part on Pgp-mediated efflux. These resistant lines were either created through stable transfection of MCF-7 cells with Pgp (MCF-7-Pgp), or by selection through exposure of OVCA429 and OVCA433 cells to taxol (OVCA429T and OVCA433T)^19 or taxotere (OVCA429TxT and OVCA433TxT), creating a complex MDR phenotype including Pgp upregulation.
# as §2, §3
# [9] = system: OVCA 429T; assay: cells; conditions: read-out: IC50 concentration; OVCA 429T (taxol resistant); 20 min incubation, washed, 72 hr drug-free media
# Method: as §1, §4, §2, §3
# [10] = system: OVCA 433TxT; assay: cells; conditions: read-out: IC50 concentration; OVCA 433TxT (taxotere selected); 20 min incubation, washed, 72 hr drug-free media
# Method: as §1, §4, §2, §3
# [11] = system: OVCA 433T; assay: cells; conditions: read-out: IC50 concentration; OVCA 433T (taxol resistant); 20 min incubation, washed, 72 hr drug-free media
# Method: as §1, §4, §2, §3
# [12] = system: MCF-7-pgp; assay: Cell cytotoxicity assay (IC50), MCF-7-pgp; conditions: read-out: IC50 concentration; MCF-7-pgp (Pgp transfected); 20 min incubation, washed, 72 hr drug-free media
# Method: as §1, §4, §2, §3
# [13] = system: OVCA429 cells; assay: Cell cycle assay, OVCA429; type: cell-based, human; set-up: dose or concentration left out as unconfirmed; conditions: analysis after 24 hr, 7-AAD flow cytometry
# Method: FIG. 1. Mechanisms of action of octaarginine taxol conjugates. (a) Tubulin polymerization assay.
# The percentage of cells in G2/M was recorded. Data from 3 separate experiments were combined.
# Statistical significance was determined as p<0.05.
# [14] = Method: FIG. 2. Effect of octaarginine (r8) conjugation on biodistribution of drug. […] (a) Representative image of treated mice at 40 min post injection. (b) Total signal per mouse at times post injection (average of two experiments).
# Biolumninescence signal was determined at regular time points immediately after injection using an IVIS 200 system (Caliper Life Sciences, Alameda, Calif.).
smiles,measurement,setting,value
"CC(=O)N[C@H](CSSCCCC(=O)O[C@@H](C(=O)O[C@H]1C[C@@]2(O)[C@@H](OC(=O)c3ccccc3)[C@@H]3[C@]4(OC(C)=O)CO[C@@H]4C[C@H](O)[C@@]3(C)C(=O)[C@H](OC(C)=O)C(=C1C)C2(C)C)[C@@H](NC(=O)c1ccccc1)c1ccccc1)C(=O)N[C@H](CCCNC(=N)N)C(=O)N[C@H](CCCNC(=N)N)C(=O)N[C@H](CCCNC(=N)N)C(=O)N[C@H](CCCNC(=N)N)C(=O)N[C@H](CCCNC(=N)N)C(=O)N[C@H](CCCNC(=N)N)C(=O)N[C@H](CCCNC(=N)N)C(=O)N[C@H](CCCNC(=N)N)C(N)=O [2a, Taxol C2′ ester octaarginine conjugate] (Ac-[dC](Paclitaxel(2'-OCO(CH2)3S))[dR][dR][dR][dR][dR][dR][dR][dR]-NH2)",half-life,[1],23 h
same,IC50,[2],40 nM
same,IC50,[3],42 nM
same,IC50,[4],21 nM
same,IC50,[5],11 nM
same,IC50,[6],58 nM
same,IC50,[7],92 nM
same,IC50,[8],101 nM
same,IC50,[9],420 nM
same,IC50,[10],2980 nM
same,IC50,[11],131 nM
same,IC50,[12],151 nM
"CC(=O)N[C@H](CSSCCCC(=O)O[C@@H](C(=O)O[C@H]1C[C@@]2(O)[C@@H](OC(=O)c3ccccc3)[C@@H]3[C@]4(OC(C)=O)CO[C@@H]4C[C@H](O)[C@@]3(C)C(=O)[C@H](OC(C)=O)C(=C1C)C2(C)C)[C@@H](NC(=O)c1ccccc1)c1ccccc1)C(=O)N[C@H](CCCNC(=N)N)C(=O)N[C@H](CCCNC(=N)N)C(=O)N[C@H](CCCNC(=N)N)C(=O)N[C@H](CCCNC(=N)N)C(N)=O [2b, Taxol C2′ ester tetraarginine conjugate]",half-life,[1],19 h
same,percentage of cells in the G2/M phase relative to taxol,[13],significantly greater percentage
"CC(=O)N[C@H](CSSCCCC(=O)O[C@H]1C[C@H]2OC[C@@]2(OC(C)=O)[C@H]2[C@H](OC(=O)c3ccccc3)[C@]3(O)C[C@H](OC(=O)[C@H](O)[C@@H](NC(=O)c4ccccc4)c4ccccc4)C(C)=C([C@@H](OC(C)=O)C(=O)[C@]12C)C3(C)C)C(=O)N[C@H](CCCNC(=N)N)C(=O)N[C@H](CCCNC(=N)N)C(=O)N[C@H](CCCNC(=N)N)C(=O)N[C@H](CCCNC(=N)N)C(=O)N[C@H](CCCNC(=N)N)C(=O)N[C@H](CCCNC(=N)N)C(=O)N[C@H](CCCNC(=N)N)C(=O)N[C@H](CCCNC(=N)N)C(N)=O [3a, Taxol C7 ester octaarginine conjugate] (Ac-[dC](X1)[dR][dR][dR][dR][dR][dR][dR][dR]-NH2)",half-life,[1],97 h
same,IC50,[2],146 nM
same,IC50,[3],125 nM
same,IC50,[4],62 nM
same,IC50,[5],24 nM
same,IC50,[6],170 nM
same,IC50,[7],233 nM
same,IC50,[8],93 nM
same,IC50,[9],225 nM
same,IC50,[10],1280 nM
same,IC50,[11],95 nM
same,IC50,[12],83 nM
"CC(=O)N[C@H](CSSCCCC(=O)O[C@H]1C[C@H]2OC[C@@]2(OC(C)=O)[C@H]2[C@H](OC(=O)c3ccccc3)[C@]3(O)C[C@H](OC(=O)[C@H](O)[C@@H](NC(=O)c4ccccc4)c4ccccc4)C(C)=C([C@@H](OC(C)=O)C(=O)[C@]12C)C3(C)C)C(=O)N[C@H](CCCNC(=N)N)C(=O)N[C@H](CCCNC(=N)N)C(=O)N[C@H](CCCNC(=N)N)C(=O)N[C@H](CCCNC(=N)N)C(N)=O [3b, Taxol C7 ester tetraarginine conjugate]",half-life,[1],68 h
"CC(=O)N[C@H](CSSCCOC(=O)O[C@@H](C(=O)O[C@H]1C[C@@]2(O)[C@@H](OC(=O)c3ccccc3)[C@@H]3[C@]4(OC(C)=O)CO[C@@H]4C[C@H](O)[C@@]3(C)C(=O)[C@H](OC(C)=O)C(=C1C)C2(C)C)[C@@H](NC(=O)c1ccccc1)c1ccccc1)C(=O)N[C@H](CCCNC(=N)N)C(=O)N[C@H](CCCNC(=N)N)C(=O)N[C@H](CCCNC(=N)N)C(=O)N[C@H](CCCNC(=N)N)C(=O)N[C@H](CCCNC(=N)N)C(=O)N[C@H](CCCNC(=N)N)C(=O)N[C@H](CCCNC(=N)N)C(=O)N[C@H](CCCNC(=N)N)C(N)=O [4a, Taxol C2′ octaarginine conjugate] (Ac-[dC](X2)[dR][dR][dR][dR][dR][dR][dR][dR]-NH2)",half-life,[1],32 h
"CC(=O)N[C@H](CSSCCOC(=O)O[C@@H](C(=O)O[C@H]1C[C@@]2(O)[C@@H](OC(=O)c3ccccc3)[C@@H]3[C@]4(OC(C)=O)CO[C@@H]4C[C@H](O)[C@@]3(C)C(=O)[C@H](OC(C)=O)C(=C1C)C2(C)C)[C@@H](NC(=O)c1ccccc1)c1ccccc1)C(=O)N[C@H](CCCNC(=N)N)C(=O)N[C@H](CCCNC(=N)N)C(=O)N[C@H](CCCNC(=N)N)C(=O)N[C@H](CCCNC(=N)N)C(N)=O [4b, Taxol C2′ tetraarginine conjugate]",half-life,[1],26 h
"CC(=O)N[C@H](CSSCCCOC(=O)Oc1ccc(-c2cn3c(=O)c(Cc4ccccc4)nc-3c(Cc3ccccc3)[nH]2)cc1)C(=O)N[C@H](CCCNC(=N)N)C(=O)N[C@H](CCCNC(=N)N)C(=O)N[C@H](CCCNC(=N)N)C(=O)N[C@H](CCCNC(=N)N)C(=O)N[C@H](CCCNC(=N)N)C(=O)N[C@H](CCCNC(=N)N)C(=O)N[C@H](CCCNC(=N)N)C(=O)N[C@H](CCCNC(=N)N)C(N)=O [compound 6, Coelenterazine octaarginine conjugate] (Ac-[dC](X3)[dR][dR][dR][dR][dR][dR][dR][dR]-NH2)",half-life,[1],0.117 h
"CC(=O)N[C@H](CSSCCCCOC(=O)Oc1ccc2nc(C3=N[C@@H](C(=O)O)CS3)sc2c1)C(=O)N[C@H](CCCNC(=N)N)C(=O)N[C@H](CCCNC(=N)N)C(=O)N[C@H](CCCNC(=N)N)C(=O)N[C@H](CCCNC(=N)N)C(=O)N[C@H](CCCNC(=N)N)C(=O)N[C@H](CCCNC(=N)N)C(=O)N[C@H](CCCNC(=N)N)C(=O)N[C@H](CCCNC(=N)N)C(N)=O [compound 7, Luciferin octaarginine conjugate]",half-life,[1],30 h
same,calculated area under the curve (total light production),"[14]; intraperitoneal injection, luciferase transgenic mice",similar
same,biodistribution after intraperitoneal injection,"[14]; transgenic mice ubiquitously expressing Firefly luciferase, equimolar to 5 mg/kg","did not distribute throughout the body, remaining instead near the site of administration"
